Measured values: ChEMBL document CHEMBL1147193, “New 5-substituted thiazolo[3,2-b][1,2,4]triazol-6-ones: synthesis and anticancer evaluation” (2007)

Experiments:
Assay type in all cases: functional
SW-620 = assay: Growth inhibition of human SW620 cells after 48 hrs by SRB protein assay; conditions: SW-620, 48 h; for TGI: read-out: Log TGI (converted)
SF-295 = assay: Growth inhibition of human SF295 cells after 48 hrs by SRB protein assay; conditions: SF-295, 48 h; for TGI: read-out: Log TGI (converted)
Hs-578T = assay: Growth inhibition of human HS578T cells after 48 hrs by SRB protein assay; conditions: for TGI: read-out: Log TGI (converted)
U-251 = assay: Growth inhibition of human U251 cells after 48 hrs by SRB protein assay; conditions: U-251, 48 h; for TGI: read-out: Log TGI (converted)
ACHN = assay: Growth inhibition of human ACHN cells after 48 hrs by SRB protein assay; conditions: for TGI: read-out: Log TGI (converted)
A549 = assay: Growth inhibition of human A549/ATCC cells after 48 hrs by SRB protein assay; conditions: A549, 48 h; for TGI: read-out: Log TGI (converted)
COLO 205 = assay: Growth inhibition of human COLO205 cells after 48 hrs by SRB protein assay; conditions: COLO 205, 48 h; for TGI: read-out: Log TGI (converted)
NCI-H322M = assay: Growth inhibition of human NCI-H322M cells after 48 hrs by SRB protein assay; conditions: for TGI: read-out: Log TGI (converted)
SN12C = assay: Growth inhibition of human SN12C cells after 48 hrs by SRB protein assay; conditions: for TGI: read-out: Log TGI (converted)
HCT-15 = assay: Growth inhibition of human HCT15 cells after 48 hrs by SRB protein assay; conditions: HCT-15, 48 h; for TGI: read-out: Log TGI (converted)
UACC-257 = assay: Growth inhibition of human UACC257 cells after 48 hrs by SRB protein assay; conditions: UACC-257, 48 h; for TGI: read-out: Log TGI (converted)
SK-MEL-5 = assay: Growth inhibition of human SK-MEL-5 cells after 48 hrs by SRB protein assay; conditions: SK-MEL-5, 48 h; for TGI: read-out: Log TGI (converted)
HCC 2998 = assay: Growth inhibition of human HCC2998 cells after 48 hrs by SRB protein assay; conditions: HCC 2998, 48 h
NCI-H460 [1] = assay: Growth inhibition of human NCI-H460 cells after 48 hrs by SRB protein assay; conditions: NCI-H460, 48 h; for TGI: read-out: Log TGI (converted)
MCF7 [2] = assay: Anticancer activity against human MCF7 cells assessed as growth of cells at 100 uM relative to untreated cells
HOP-92 = assay: Growth inhibition of human HOP92 cells after 48 hrs by SRB protein assay; conditions: HOP-92, 48 h; for TGI: read-out: Log TGI (converted)
KM12 = assay: Growth inhibition of human KM12 cells after 48 hrs by SRB protein assay; conditions: KM12, 48 h; for TGI: read-out: Log TGI (converted)
SK-OV-3 = assay: Growth inhibition of human SK-OV-3 cells after 48 hrs by SRB protein assay; conditions: SK-OV-3, 48 h; for TGI: read-out: Log TGI (converted)
PC-3 = assay: Growth inhibition of human PC3 cells after 48 hrs by SRB protein assay; conditions: PC-3, 48 h; for TGI: read-out: Log TGI (converted)
UACC-62 = assay: Growth inhibition of human UACC62 cells after 48 hrs by SRB protein assay; conditions: UACC-62, 48 h; for TGI: read-out: Log TGI (converted)
OVCAR-5 = assay: Growth inhibition of human OVCAR5 cells after 48 hrs by SRB protein assay; conditions: OVCAR-5, 48 h
CAKI-1 = assay: Growth inhibition of human CAKI1 cells after 48 hrs by SRB protein assay; conditions: CAKI-1, 48 h; for TGI: read-out: Log TGI (converted)
[3] = Growth inhibition of human MDA-MB-231/ATCC cells after 48 hrs by SRB protein assay; conditions: MDA-MB-231, 48 h; for TGI: read-out: Log TGI (converted)
MDA-MB-435 = assay: Growth inhibition of human MDA-MB-435 cells after 48 hrs by SRB protein assay; conditions: MDA-MB-435, 48 h; for TGI: read-out: Log TGI (converted)
IGROV-1 = assay: Growth inhibition of human IGROV1 cells after 48 hrs by SRB protein assay; conditions: IGROV-1, 48 h; for TGI: read-out: Log TGI (converted)
SK-MEL-28 = assay: Growth inhibition of human SK-MEL-28 cells after 48 hrs by SRB protein assay; conditions: SK-MEL-28, 48 h; for TGI: read-out: Log TGI (converted)
M14 = assay: Growth inhibition of human M14 cells after 48 hrs by SRB protein assay; conditions: M14, 48 h; for TGI: read-out: Log TGI (converted)
MCF7 [4] = assay: Growth inhibition of human MCF7 cells after 48 hrs by SRB protein assay; conditions: MCF7, 48 h; for TGI: read-out: Log TGI (converted)
TK-10 = assay: Growth inhibition of human TK10 cells after 48 hrs by SRB protein assay; conditions: TK-10, 48 h; for TGI: read-out: Log TGI (converted)
OVCAR-8 = assay: Growth inhibition of human OVCAR8 cells after 48 hrs by SRB protein assay; conditions: OVCAR-8, 48 h; for TGI: read-out: Log TGI (converted)
SF-268 [5] = assay: Growth inhibition of human SF268 cells after 48 hrs by SRB protein assay; conditions: SF-268, 48 h; for TGI: read-out: Log TGI (converted)
UO-31 = assay: Growth inhibition of human UO31 cells after 48 hrs by SRB protein assay; conditions: UO-31, 48 h; for TGI: read-out: Log TGI (converted)
SF-268 [6] = assay: Anticancer activity against human SF268 cells assessed as growth of cells at 100 uM relative to untreated cells
NCI-H460 [7] = assay: Anticancer activity against human NCI-H460 cells assessed as growth of cells at 100 uM relative to untreated cells
OVCAR-3 = assay: Growth inhibition of human OVCAR-3 cells after 48 hrs by SRB protein assay; conditions: OVCAR-3, 48 h; for TGI: read-out: Log TGI (converted)
RPMI-8226 = assay: Growth inhibition of human RPMI8226 cells after 48 hrs by SRB protein assay; conditions: RPMI-8226, 48 h; for TGI: read-out: Log TGI (converted)
LOX IMVI = assay: Growth inhibition of human LOX IMVI cells after 48 hrs by SRB protein assay; conditions: for TGI: read-out: Log TGI (converted)
[8] = Growth inhibition of human MALME 3M cells after 48 hrs by SRB protein assay; conditions: for TGI: read-out: Log TGI (converted)
OVCAR-4 = assay: Growth inhibition of human OVCAR4 cells after 48 hrs by SRB protein assay; conditions: OVCAR-4, 48 h; for TGI: read-out: Log TGI (converted)
CCRF-CEM = assay: Growth inhibition of human CCRF-CEM cells after 48 hrs by SRB protein assay

## O=c1/c(=C/c2ccc(F)cc2)sc2ncnn12
SW-620
  GI50: 66.1 µM
  TGI: > 100 µM
SF-295
  GI50: 52.5 µM
  TGI: > 100 µM
Hs-578T
  GI50: 69.2 µM
  TGI: > 100 µM
U-251
  GI50: 60.3 µM
  TGI: > 100 µM
ACHN
  GI50: 81.3 µM
  TGI: > 100 µM
A549
  GI50: 87.1 µM
  TGI: > 100 µM
COLO 205
  GI50: 61.7 µM
  TGI: > 100 µM
NCI-H322M
  GI50: > 100 µM
  TGI: > 100 µM
SN12C
  GI50: 40.7 µM
  TGI: > 100 µM
HCT-15
  GI50: 63.1 µM
  TGI: > 100 µM
UACC-257
  GI50: 95.5 µM
  TGI: > 100 µM
SK-MEL-5
  GI50: 41.7 µM
  TGI: > 100 µM
HCC 2998
  GI50: 63.1 µM
HCC 2998; read-out: Log TGI (converted)
  TGI: > 100 µM
NCI-H460 [1]
  GI50: 61.7 µM
  TGI: > 100 µM
MCF7 [2]
  Activity: 77%
HOP-92
  GI50: 47.9 µM
  TGI: > 100 µM
KM12
  GI50: 35.5 µM
  TGI: > 100 µM
SK-OV-3
  GI50: > 100 µM
  TGI: > 100 µM
PC-3
  GI50: 53.7 µM
  TGI: > 100 µM
UACC-62
  GI50: 66.1 µM
  TGI: > 100 µM
OVCAR-5
  GI50: 55 µM
OVCAR-5; read-out: Log TGI (converted)
  TGI: > 100 µM
CAKI-1
  GI50: 69.2 µM
  TGI: > 100 µM
[3]
  GI50: > 100 µM
  TGI: > 100 µM
MDA-MB-435
  GI50: 37.2 µM
  TGI: > 100 µM
IGROV-1
  GI50: 57.5 µM
  TGI: > 100 µM
SK-MEL-28
  GI50: 52.5 µM
  TGI: > 100 µM
M14
  GI50: 28.8 µM
  TGI: > 100 µM
MCF7 [4]
  GI50: 32.4 µM
  TGI: > 100 µM
TK-10
  GI50: > 100 µM
  TGI: > 100 µM
OVCAR-8
  GI50: 44.7 µM
  TGI: > 100 µM
SF-268 [5]
  GI50: 33.9 µM
  TGI: > 100 µM
UO-31
  GI50: 69.2 µM
  TGI: > 100 µM
SF-268 [6]
  Activity: 70%
NCI-H460 [7]
  Activity: 13%
OVCAR-3
  GI50: 37.2 µM
  TGI: > 100 µM
RPMI-8226
  GI50: 26.3 µM
  TGI: 79.4 µM
LOX IMVI
  GI50: 37.2 µM
  TGI: > 100 µM
[8]
  GI50: > 100 µM
  TGI: > 100 µM
OVCAR-4
  GI50: 34.7 µM
  TGI: > 100 µM

## O=C(CC1Sc2ncnn2C1=O)Nc1ccccc1 (stereo not drawn)
SW-620
  GI50: 3.24 µM
  TGI: 44.7 µM
SF-295
  GI50: > 100 µM
  TGI: > 100 µM
Hs-578T
  GI50: 12.3 µM
  TGI: 45.7 µM
U-251
  GI50: > 100 µM
  TGI: > 100 µM
ACHN
  GI50: 21.9 µM
  TGI: 41.7 µM
A549
  GI50: > 100 µM
  TGI: > 100 µM
COLO 205
  GI50: 25.7 µM
  TGI: 79.4 µM
NCI-H322M
  GI50: > 100 µM
  TGI: > 100 µM
SN12C
  GI50: 27.5 µM
  TGI: 67.6 µM
HCT-15
  GI50: 33.1 µM
  TGI: > 100 µM
UACC-257
  GI50: 40.7 µM
  TGI: > 100 µM
SK-MEL-5
  GI50: 22.9 µM
  TGI: 47.9 µM
NCI-H460 [1]
  GI50: 35.5 µM
  TGI: > 100 µM
MCF7 [2]
  Activity: 0%
HOP-92
  GI50: 25.1 µM
  TGI: 66.1 µM
KM12
  GI50: > 100 µM
  TGI: > 100 µM
SK-OV-3
  GI50: > 100 µM
  TGI: > 100 µM
PC-3
  GI50: 72.4 µM
  TGI: > 100 µM
UACC-62
  GI50: > 100 µM
  TGI: > 100 µM
CAKI-1
  GI50: 23.4 µM
  TGI: 49 µM
[3]
  GI50: 19.1 µM
  TGI: 38.9 µM
MDA-MB-435
  GI50: 41.7 µM
  TGI: > 100 µM
IGROV-1
  GI50: 25.7 µM
  TGI: 66.1 µM
SK-MEL-28
  GI50: > 100 µM
  TGI: > 100 µM
M14
  GI50: 21.9 µM
  TGI: 45.7 µM
MCF7 [4]
  GI50: 36.3 µM
  TGI: > 100 µM
TK-10
  GI50: 19.1 µM
  TGI: 39.8 µM
OVCAR-8
  GI50: 25.7 µM
  TGI: 60.3 µM
SF-268 [5]
  GI50: > 100 µM
  TGI: > 100 µM
UO-31
  GI50: 25.1 µM
  TGI: 57.5 µM
SF-268 [6]
  Activity: 110%
NCI-H460 [7]
  Activity: 0%
OVCAR-3
  GI50: 34.7 µM
  TGI: > 100 µM
RPMI-8226
  GI50: 20.9 µM
  TGI: 64.6 µM
LOX IMVI
  GI50: 25.7 µM
  TGI: 53.7 µM
[8]
  GI50: 19.1 µM
  TGI: 44.7 µM
OVCAR-4
  GI50: > 100 µM
  TGI: > 100 µM
CCRF-CEM
  GI50: 33.9 µM
CCRF-CEM; read-out: Log TGI (converted)
  TGI: 100 µM
